Reference: the supplement of paper PMC10307832

Experiments:
Experiment in all cases: relative viability (nuclei count vs DMSO), 5 days (fraction); higher = more cells survive
[1] = compound: CC(C)CCN1c2nc(Nc3cc(F)c(O)c(F)c3)ncc2N(C)C(=O)C1C [BI-D1870]
Outline: (§1)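 Viability here means nuclei in treated wells divided by nuclei in vehicle wells, reported as the median across plates. Only plates with control CV below 25% and at least one doubling passed. Lung cancer cell lines in 1536-well plates were exposed to five √10-spaced library-drug doses for 5 days and counted from 4× Hoechst images in MetaXpress.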

[2] = compound: O=c1ncccn1[C@@H]1O[C@H](CO)[C@@H](O)[C@H]1O [Zebularine]
Outline: as §1

[3] = compound: CC(C)CCN1c2nc(Nc3cc(F)c(O)c(F)c3)ncc2N(C)C(=O)C1C [BI-D1870] + CC1(C)CCC(c2ccc(Cl)cc2)=C(CN2CCN(c3ccc(C(=O)NS(=O)(=O)c4ccc(N[C@H](CCN5CCOCC5)CSc5ccccc5)c(S(=O)(=O)C(F)(F)F)c4)cc3)CC2)C1 [Navitoclax] (partner 0.5 µM)
Outline: (§2)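 Lung cancer cell lines were seeded in 1536-well plates and dosed by pin tool the next day, with either a single drug or a fixed anchor-drug dose combined with five library-drug doses (not always all listed) spaced in √10 steps. Five days later, one step fixed the cells and stained their nuclei (final 0.05% Triton X-100, 1% formaldehyde, 1 ug/ml Hoechst), and nuclei were counted on 4× images. Relative viability is the nuclei count in treated wells divided by the count in vehicle wells, and each value is the median of duplicate plates.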

[4] = compound: O=c1ncccn1[C@@H]1O[C@H](CO)[C@@H](O)[C@H]1O [Zebularine] + N=C(N)NC(=N)NCCc1ccccc1 [Phenformin] (partner 250 µM)
Outline: as §2

Cell Line	relative viability ([1]; 0.04 µM)	relative viability ([1]; 0.1265 µM)	relative viability ([1]; 0.4 µM)	relative viability ([1]; 1.265 µM)	relative viability ([1]; 4 µM)	relative viability ([2]; 1 µM)	relative viability ([2]; 3.162 µM)	relative viability ([2]; 10 µM)	relative viability ([2]; 31.62 µM)	relative viability ([2]; 100 µM)	relative viability ([3]; first compound 0.04 µM)	relative viability ([3]; first compound 0.1265 µM)	relative viability ([3]; first compound 0.4 µM)	relative viability ([3]; first compound 1.265 µM)	relative viability ([3]; first compound 4 µM)	relative viability ([4]; first compound 1 µM)	relative viability ([4]; first compound 3.162 µM)	relative viability ([4]; first compound 10 µM)	relative viability ([4]; first compound 31.62 µM)	relative viability ([4]; first compound 100 µM)
201T	0.989	0.962	0.975	0.985	0.959	1.08	0.986	0.776	1	0.947	1.18	1.18	1.19	1.23	1.19	0.527	0.485	0.327	0.492	0.368
HCC-44	1.04	0.876	0.989	1.07	1.03	1.05	1.02	0.701	0.843	0.44	1.04	0.944	0.999	1.1	0.847	0.255	0.212	0.145	0.144	0.157
NCI-H596	0.986	0.912	0.939	1.08	1.03	1.12	0.954	0.781	1.06	0.989	1.21	0.922	0.947	1.2	0.987	0.844	0.817	0.579	0.776	0.807
H3255	1.01	0.97	1.04	1.09	0.994	1.01	0.948	0.782	0.998	1.05	0.688	0.598	0.56	0.595	0.468	0.34	0.369	0.361	0.401	0.353
NCI-H647	1.07	0.918	1.05	1.04	0.889	1.01	0.943	0.294	0.203	0.157	1.27	0.978	1.08	1.04	0.848	0.539	0.48	0.178	0.22	0.12
NCI-H2023	1	0.846	0.88	0.988	0.701	1.17	1	0.724	0.613	0.287	1.03	0.811	1.01	0.864	0.894	0.475	0.443	0.213	0.23	0.208
NCI-H23	1.21	0.874	0.868	0.939	0.575	1.1	0.91	0.632	0.983	0.881	1.15	0.741	0.792	0.891	0.888	0.847	0.821	0.423	0.75	0.77
NCI-H1944	1.12	0.919	0.907	1.03	0.941	0.995	1.02	0.788	0.947	0.718	1.01	1.02	0.988	1.09	1.06	0.226	0.188	0.174	0.19	0.146
NCI-H1793	1.06	0.803	0.757	1.19	0.801	1.16	1	0.442	0.67	0.237	0.34	0.342	0.372	0.554	0.45	0.4	0.39	–	0.237	0.168
NCI-H520	0.963	0.79	1.11	0.927	0.851	1.11	0.957	0.52	0.388	0.26	1.12	1.01	0.938	1.05	0.829	0.76	0.6	0.313	0.332	0.206
A549	1.06	0.908	0.975	1.04	0.848	1.08	0.913	0.519	0.75	0.155	1.31	1.15	1.28	1.15	0.123	0.209	0.171	0.169	0.131	0.122
NCI-H460	1.04	0.96	0.96	0.999	0.703	1.07	1	0.662	0.498	0.096	1.24	1.09	1.08	0.407	0.0595	0.601	0.592	0.364	0.127	0.0588
EKVX	1.06	0.94	0.889	1.11	0.931	1.04	0.961	–	1.03	0.985	1.01	0.909	0.889	1	0.922	0.238	0.248	0.218	0.238	0.251
EPLC-272H	1.12	0.802	0.926	0.821	0.627	1.14	0.577	0.558	0.811	0.724	1.3	0.932	1.05	1.24	1.03	0.272	0.286	0.227	0.255	0.238
NCI-H1395	0.905	0.822	0.87	0.988	0.827	0.929	0.86	0.788	0.676	0.511	1.16	1.12	1.36	1.01	0.871	0.455	0.454	0.398	0.361	0.372
NCI-H2126	1.05	0.889	0.981	1	0.854	1.06	0.884	0.879	0.927	0.648	0.876	0.829	0.853	0.904	0.771	0.579	0.473	0.445	0.494	0.435
